This passage reports IC50 results from patent US20240158392A1 (Janssen Biotech, Inc., priority 2021, published 2024).

The structures appear in SMILES notation.

The target of this experiment is SIK2 (Homo sapiens, UniProt Q9H0K1). The experiment in a line: SIK2 Enzymatic Assay High Version 2 (High ATP). In kind it is biochemical. The settings on record: enzyme 6 nM, 6 mM ATP and 400 μM HDAC5tide (each 2× final concentration); 30 minutes pre-incubation, 2 hours; ADP-Glo Max luminescence; read-out: SIK2 high ATP IC50 (μM) (Test Example 2). The gist of the method:
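At room temperature, enzyme (6 nM, 2× final) was preincubated with compound for 30 min, then 6 mM ATP and 400 μM HDAC5tide (both 2× final) were added for 2 h. ADP formed was measured by ADP-Glo Max (2 h reagent, 1 h detection) using luminescence.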
In general terms: ADP-Glo turns the ADP formed in a reaction into a luminescent signal.

A word on the IC50: it is the midpoint of a concentration-inhibition curve.

SIK2, sequence (Q9H0K1 whole entry, species assumed): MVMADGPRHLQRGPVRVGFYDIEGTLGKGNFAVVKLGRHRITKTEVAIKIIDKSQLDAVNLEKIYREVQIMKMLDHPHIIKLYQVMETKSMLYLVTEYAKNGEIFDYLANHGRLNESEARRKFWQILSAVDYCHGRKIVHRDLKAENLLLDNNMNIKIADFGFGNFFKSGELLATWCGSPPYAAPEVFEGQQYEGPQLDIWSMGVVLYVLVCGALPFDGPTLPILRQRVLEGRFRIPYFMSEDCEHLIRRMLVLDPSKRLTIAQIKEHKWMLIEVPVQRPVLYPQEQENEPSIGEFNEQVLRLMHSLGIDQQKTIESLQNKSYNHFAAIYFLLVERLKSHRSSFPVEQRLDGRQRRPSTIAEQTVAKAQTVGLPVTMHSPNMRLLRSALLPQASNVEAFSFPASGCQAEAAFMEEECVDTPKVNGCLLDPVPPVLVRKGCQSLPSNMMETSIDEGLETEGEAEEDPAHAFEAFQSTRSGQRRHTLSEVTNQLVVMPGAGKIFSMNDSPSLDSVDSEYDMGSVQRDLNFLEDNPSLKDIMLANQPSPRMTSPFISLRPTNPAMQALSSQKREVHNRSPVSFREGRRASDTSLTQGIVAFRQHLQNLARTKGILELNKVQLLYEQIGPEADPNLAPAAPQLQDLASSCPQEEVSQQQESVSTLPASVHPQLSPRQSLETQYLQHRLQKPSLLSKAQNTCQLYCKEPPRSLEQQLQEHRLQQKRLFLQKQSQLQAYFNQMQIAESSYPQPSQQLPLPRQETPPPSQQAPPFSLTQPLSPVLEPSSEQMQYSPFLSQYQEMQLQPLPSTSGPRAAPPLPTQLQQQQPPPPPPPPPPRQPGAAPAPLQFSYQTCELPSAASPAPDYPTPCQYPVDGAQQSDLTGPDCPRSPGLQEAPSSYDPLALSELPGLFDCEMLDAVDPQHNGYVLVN

For the compound `Cn1cc(Nc2cc3cc(-c4cc(OC(F)F)ncc4OCC(C)(C)C#N)ccn3n2)cn1` [Example 692, 3-[[6-(difluoromethoxy)-4-[2-[(1-methylpyrazol-4-yl)amino]pyrazolo[1,5-a]pyridin-5-yl]-3-pyridyl]oxy]-2,2-dimethyl-propanenitrile], the IC50 is 0.00228 µM.
In the case of `Cc1cc(Nc2cc3cc(-c4cc(OCC(F)F)ncc4OCC(C)(C)C#N)ccn3n2)nn(C)c1=O` [Example 693, 3-[[6-(2,2-difluoroethoxy)-4-[2-[(1,5-dimethyl-6-oxo-pyridazin-3-yl)amino]pyrazolo[1,5-a]pyridin-5-yl]-3-pyridyl]oxy]-2,2-dimethyl-propanenitrile] it was 0.0766 µM; in that of `CC(C)(C#N)COc1cnc(OC(F)F)cc1-c1ccn2nc(Nc3cccnc3)cc2c1` [Example 694, 3-[[6-(difluoromethoxy)-4-[2-(3-pyridylamino)pyrazolo[1,5-a]pyridin-5-yl]-3-pyridyl]oxy]-2,2-dimethyl-propanenitrile], 0.0195 µM; in that of `CC(C)(C#N)COc1cnc(OC(F)F)cc1-c1ccn2nc(Nc3ccc(CN4CCOCC4)cn3)cc2c1` [Example 695, 3-[[6-(difluoromethoxy)-4-[2-[[5-(morpholinomethyl)-2-pyridyl]amino]pyrazolo[1,5-a]pyridin-5-yl]-3-pyridyl]oxy]-2,2-dimethyl-propanenitrile], 0.117 µM.
In the case of `Cc1cncc(Nc2cc3cc(-c4cc(OCC(F)F)ncc4OCC(C)(C)C#N)ccn3n2)n1` [Example 696, 3-[[6-(2,2-difluoroethoxy)-4-[2-[(6-methylpyrazin-2-yl)amino]pyrazolo[1,5-a]pyridin-5-yl]-3-pyridyl]oxy]-2,2-dimethyl-propanenitrile] it was 0.0821 µM; in that of `Cn1nc(Nc2cc3cc(-c4cc(OCC(F)F)ncc4OCC(C)(C)C#N)ccn3n2)ccc1=O` [Example 697, 3-[[6-(2,2-difluoroethoxy)-4-[2-[(1-methyl-6-oxo-pyridazin-3-yl)amino]pyrazolo[1,5-a]pyridin-5-yl]-3-pyridyl]oxy]-2,2-dimethyl-propanenitrile], 0.021 µM; in that of `COc1ccnc(Nc2cc3cc(-c4cc(OC(F)F)ncc4OCC(C)(C)C#N)ccn3n2)n1` [Example 698, 3-[[6-(difluoromethoxy)-4-[2-[(4-methoxypyrimidin-2-yl)amino]pyrazolo[1,5-a]pyridin-5-yl]-3-pyridyl]oxy]-2,2-dimethyl-propanenitrile], 0.0018 µM.
In the case of `Cn1cnc(Nc2cc3cc(-c4cc(OC(F)F)ncc4OCC(C)(C)C#N)ccn3n2)n1` [Example 699, 3-[[6-(difluoromethoxy)-4-[2-[(1-methyl-1,2,4-triazol-3-yl)amino]pyrazolo[1,5-a]pyridin-5-yl]-3-pyridyl]oxy]-2,2-dimethyl-propanenitrile] it was 0.0111 µM.
In the case of `CCNc1nc(Nc2cc3cc(-c4cc(OC(F)F)ncc4OCC(C)(C)C#N)ccn3n2)cc(C(F)(F)F)n1` [Example 700, 3-[[6-(difluoromethoxy)-4-[2-[[2-(ethylamino)-6-(trifluoromethyl)pyrimidin-4-yl]amino]pyrazolo[1,5-a]pyridin-5-yl]-3-pyridyl]oxy]-2,2-dimethyl-propanenitrile], the IC50 stood at 0.00786 µM.
In the case of `Cc1cc(C(=O)NCC(C)(C)O)cc(Nc2cc3cc(-c4cc(OC(F)F)ncc4OCC(C)(C)C#N)ccn3n2)n1` [Example 701, 2-[[5-[5-(2-cyano-2-methyl-propoxy)-2-(difluoromethoxy)-4-pyridyl]pyrazolo[1,5-a]pyridin-2-yl]amino]-N-(2-hydroxy-2-methyl-propyl)-6-methyl-pyridine-4-carboxamide] it was 0.0279 µM; in that of `Cn1nc(Nc2cc3cc(-c4cc(OC(F)F)ncc4OCC(C)(C)C#N)ccn3n2)ccc1=O` [Example 702, 3-[[6-(difluoromethoxy)-4-[2-[(1-methyl-6-oxo-pyridazin-3-yl)amino]pyrazolo[1,5-a]pyridin-5-yl]-3-pyridyl]oxy]-2,2-dimethyl-propanenitrile], 0.00317 µM; in that of `Cc1cc(Nc2cc3cc(-c4cc(OC(F)F)ncc4OCC(C)(C)C#N)ccn3n2)nc(C(C)(C)C)n1` [Example 703, 3-[[4-[2-[(2-tert-butyl-6-methyl-pyrimidin-4-yl)amino]pyrazolo[1,5-a]pyridin-5-yl]-6-(difluoromethoxy)-3-pyridyl]oxy]-2,2-dimethyl-propanenitrile], 0.0699 µM.
In the case of `CC(C)(C#N)COc1cnc(OC(F)F)cc1-c1ccn2nc(Nc3cc(N)cnn3)cc2c1` [Example 704, 3-[[4-[2-[(5-aminopyridazin-3-yl)amino]pyrazolo[1,5-a]pyridin-5-yl]-6-(difluoromethoxy)-3-pyridyl]oxy]-2,2-dimethyl-propanenitrile] it was 0.0206 µM; in that of `CC(C)(C#N)COc1cnc(OC(F)F)cc1-c1ccn2nc(Nc3ccnc(N)n3)cc2c1` [Example 705, 3-[[4-[2-[(2-aminopyrimidin-4-yl)amino]pyrazolo[1,5-a]pyridin-5-yl]-6-(difluoromethoxy)-3-pyridyl]oxy]-2,2-dimethyl-propanenitrile], 0.0306 µM; in that of `CC(C)(C#N)COc1cnc(OC(F)F)cc1-c1ccn2nc(Nc3cc4n(n3)CCNC4)cc2c1` [Example 706, 3-[[6-(difluoromethoxy)-4-[2-(4,5,6,7-tetrahydropyrazolo[1,5-a]pyrazin-2-ylamino)pyrazolo[1,5-a]pyridin-5-yl]-3-pyridyl]oxy]-2,2-dimethyl-propanenitrile], 0.0755 µM.
In the case of `CC(C)(C#N)COc1cnc(OC(F)F)cc1-c1ccn2nc(Nc3cnccn3)cc2c1` [Example 707, 3-[[6-(difluoromethoxy)-4-[2-(pyrazin-2-ylamino)pyrazolo[1,5-a]pyridin-5-yl]-3-pyridyl]oxy]-2,2-dimethyl-propanenitrile] it was 0.0056 µM; in that of `CC(C)(C#N)COc1cnc(OC(F)F)cc1-c1ccn2nc(Nc3cccnn3)cc2c1` [Example 708, 3-[[6-(difluoromethoxy)-4-[2-(pyridazin-3-ylamino)pyrazolo[1,5-a]pyridin-5-yl]-3-pyridyl]oxy]-2,2-dimethyl-propanenitrile], 0.00591 µM; in that of `Cc1cnc(Nc2cc3cc(-c4cc(OC(F)F)ncc4OCC(C)(C)C#N)ccn3n2)cn1` [Example 709, 3-[[6-(difluoromethoxy)-4-[2-[(5-methylpyrazin-2-yl)amino]pyrazolo[1,5-a]pyridin-5-yl]-3-pyridyl]oxy]-2,2-dimethyl-propanenitrile], 0.00302 µM.
In the case of `Cc1cc(Nc2cc3cc(-c4cc(OC(F)F)ncc4OCC(C)(C)C#N)ccn3n2)nc(N2CCOCC2)n1` [Example 710, 3-[[6-(difluoromethoxy)-4-[2-[(6-methyl-2-morpholino-pyrimidin-4-yl)amino]pyrazolo[1,5-a]pyridin-5-yl]-3-pyridyl]oxy]-2,2-dimethyl-propanenitrile], the IC50 amounted to 0.0094 µM.
In the case of `Cc1ccc(Nc2cc3cc(-c4cc(OC(F)F)ncc4OCC(C)(C)C#N)ccn3n2)nn1` [Example 711, 3-[[6-(difluoromethoxy)-4-[2-[(6-methylpyridazin-3-yl)amino]pyrazolo[1,5-a]pyridin-5-yl]-3-pyridyl]oxy]-2,2-dimethyl-propanenitrile] it was 0.01 µM.
